Assay results: PubChem BioAssay AID179 (DTP/NCI, 2004)
Values joined by “and” are separate entries in the source; they are usually repeats but may differ in a detail not shown here. Equal entries are not always repeated. Active and inactive are the calls of the source.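 How the source made its calls: active means compounds giving half or more protection of infected cells from virus-caused growth loss, again on retest; inactive means the rest.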

Tested on: CEM cells HIV-1 protection, formazan growth assay
Test: NCI AIDS Antiviral Assay
Conditions: for IC50: measured here: growth of uninfected CEM cells
In short: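 Five concentrations of each compound were applied to infected and uninfected human CEM cells. Protection from HIV-1 was judged from growth measured with a soluble formazan assay.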

## O=C1c2cccc3cccc(c23)C(=O)N1C(Cc1ccccc1)c1ccccc1 (centres undefined)
  EC50: > 200 µM
  IC50: > 200 µM

## O=C1/C(=C/c2ccc3c(c2)CCC3)Cc2cc3c(cc21)CCC3
  EC50: > 200 µM
  IC50: > 200 µM

## CC1(C)C(c2ccccc2)=[N+]([O-])C(C)(C)N1O
  EC50: > 200 µM
  IC50: 170 µM

## CCC1CC(C)=CCN1S(=O)(=O)c1ccc(C)cc1 (centres undefined)
  EC50: > 18.6 µM
  IC50: > 18.6 µM

## COc1ccc2c(c1)-c1nc(=S)n(CCN(C)C)c3ccc([N+](=O)[O-])c(c13)N2
  EC50: > 2 µM
  IC50: 0.389 µM

## COc1ccc2c(c1)C(O)C(CO)C(C(=O)O)C2 (centres undefined)
  EC50: > 200 µM
  IC50: > 200 µM

## COC(=O)Cc1cc(O)c2c(c1O)C(=O)c1ccccc1C2=O
  outcome: inactive

## CCCCCCCCCCCCSC(=S)c1c(C)[nH]n(-c2ccccc2)c1=O
  EC50: > 42.7 µM
  IC50: 15.8 µM

## Cc1cc(C)nc(NS(=O)(=O)c2ccc(N=c3c4ccccc4n(C)c4ccccc34)cc2)n1
  outcome: inactive

## Cc1ccc2c(c1)C(=O)/C(=C1/CCc3ccc(C)cc31)C2
  EC50: > 200 µM
  IC50: > 200 µM

## CC1OC2(CC(OCc3ccccc3)C1OCc1ccccc1)OCCO2 (centres undefined)
  EC50: > 200 µM
  IC50: 29.5 µM

## CC(=O)C(=[N+]=[N-])C(=O)OC(C)(C)C#N
  EC50: > 200 µM
  IC50: > 200 µM

## O=C(O)CN(CC(=O)O)C(C(=O)O)c1ccccc1 (centres undefined)
  EC50: > 200 µM
  IC50: > 200 µM

## O=C(O)CN(CCOCCOCCN(CC(=O)O)CC(=O)O)CC(=O)O
  EC50: > 95.5 µM
  IC50: 3.02 µM

## CC(=O)Nc1ccc([As](=O)(O)O)cc1NC(C)=O
  EC50: > 200 µM
  IC50: 28.2 µM

## CN1C(=O)C2C=CC1C1CCC2N(C)C1=O (centres undefined)
  outcome: inactive

## Cc1ccc2c(=O)c3c(O)c4c(cc3n(C)c2c1)OC(C)(C)C=C4
  EC50: > 200 µM
  IC50: > 200 µM

## CC(C)(C)c1cc(C(c2ccccc2)c2ccccc2)cc(C(C)(C)C)c1O
  EC50: > 60.3 µM
  IC50: 33.1 µM

## Cc1cccc(N=C2NC(=O)C(CC(=O)Nc3ccccc3Cl)S2)c1 (centres undefined)
  EC50: > 10 µM
  IC50: > 10 µM

## CCOC(=O)C1(Br)C(c2ccccc2)NC(=O)N(C2OC(COC(=O)c3ccccc3)C(OC(=O)c3ccccc3)C2OC(=O)c2ccccc2)C1(C)Br (centres undefined)
  EC50: > 15.8 µM
  IC50: > 15.8 µM

## COc1cc2cnc3c4cc(OCc5ccccc5)ccc4ccc3c2cc1OC
  EC50: > 6.61 µM
  IC50: > 6.61 µM

## N.N.N.N.N.[Co+3].[I-].[N-]=[N+]=[N-]
  outcome: inactive

## CCn1cnc2c(NC(C)=O)ncnc21
  EC50: > 200 µM
  IC50: > 200 µM

## Cc1cc(N(CCC#N)CCC#N)ccc1/C(N=Nc1ccc([N+](=O)[O-])cc1)=N\NC(=O)c1cc(Cl)ccc1C(=O)c1ccccc1
  EC50: > 200 µM
  IC50: 11.2 µM

## CC(C)CC(NC(=O)OCc1ccccc1)C(=O)NCCCCC(N)C(=O)NC(CCCCNC(=O)C(CC(C)C)NC(=O)OCc1ccccc1)C(=O)NC(CCCCNC(=O)C(CC(C)C)NC(=O)OCc1ccccc1)C(=O)NC(CCCCNC(=O)C(CC(C)C)NC(=O)OCc1ccccc1)C(=O)NC(CCCCNC(=O)C(CC(C)C)NC(=O)OCc1ccccc1)C(=O)NC(CCCCNC(=O)C(CC(C)C)NC(=O)OCc1ccccc1)C(=O)O (centres undefined)
  EC50: > 100 µM
  IC50: > 100 µM

## CC(C)(C)c1cc(C(O)(C(F)(F)F)C(F)(F)F)c(S)c(C(O)(C(F)(F)F)C(F)(F)F)c1
  EC50: > 200 µM
  IC50: 3.47 µM

## CN(C)c1ccc(N2C(=S)SC(=Nc3ccccc3)C2=Nc2ccccc2)cc1
  EC50: > 200 µM
  IC50: > 200 µM

## CC(C)N1C(C)[C@@H](c2ccccc2)O[P@@]1(=O)/C=C/C[C@H]1CC(=O)CCN1Cc1ccccc1 (some centres undefined)
  outcome: inactive

## COc1ccc2[nH]c3c(cnn4cnnc34)c2c1
  outcome: inactive

## CCOC(=O)C1C[C@@H](O)CN1C(=O)c1ccc2c(c1)OCCO2 (some centres undefined)
  EC50: > 200 µM
  IC50: > 200 µM

## COc1ccc2c(C3(O)CCNCC3)c[nH]c2c1
  outcome: inactive

## Cc1c(C(=O)CSc2nc3ccccc3[nH]2)c(=O)n(-c2ccccc2)n1C
  EC50: > 95.5 µM
  IC50: > 95.5 µM

## CC(=O)C1C(=O)C(=O)N(c2ccc([N+](=O)[O-])cc2[N+](=O)[O-])C1=O (centres undefined)
  EC50: > 200 µM
  IC50: > 200 µM

## CC(=O)OC1C(COS(=O)(=O)O)OC(O[C@H]2CC[C@@]3(C)C(=CC[C@@H]4C3CC[C@@]3(C)C4CC[C@@H]3C(C)=O)C2)C(OC(C)=O)C1OC(C)=O (some centres undefined)
  EC50: > 31.6 µM
  IC50: > 31.6 µM

## CC1(C)C2CC1C(/C=N\OCC(=O)O)=CC2=O (centres undefined)
  EC50: > 200 µM
  IC50: > 200 µM

## CC(=O)OC1CCn2nnc(COC(=O)NC(C)C)c21 (centres undefined)
  outcome: inactive

## CCOC(=O)/C(O)=C/c1cc(=O)n(C)c2ccccc12
  EC50: > 200 µM
  IC50: > 200 µM

## CN(C)c1nc(N(C)C)n2nc(-c3ccccc3[N+](=O)[O-])nc2n1
  EC50: > 21.9 µM
  IC50: 0.00708 µM

## CCN(CC)S(=O)(=O)c1ccc([O-])c(C(=O)[O-])c1.[Cu+2].[OH3+]
  EC50: > 200 µM
  IC50: 28.2 µM

## CCOC(=O)C(C(=O)OCC)=C1C=C(c2ccccc2)c2ccccc21
  outcome: inactive

## COc1ccc(NC(=S)N/N=C\c2ccc(NC(C)=O)cc2)cc1
  outcome: inactive

## Brc1cc2c(cc1Br)CN(c1ccccc1)C2
  outcome: inactive

## CO[C@@]12[C@H](COC(N)=O)C3=C(C(=O)C(C)=C(N)C3=O)N1C[C@@H]1N[C@@H]12
  EC50: > 17.4 µM
  IC50: 0.794 µM

## Clc1ccc(-c2cn3c(nc4ccccc43)c(-c3ccccc3)n2)cc1
  EC50: > 200 µM
  IC50: 72.4 µM

## CSC1=Nc2cccnc2Nc2cscc21
  EC50: > 200 µM
  IC50: 1.26 µM

## Cc1ccc(C2[C@H]3C(=O)N(c4ccc(Cc5ccc(N6C(=O)[C@@H]7ON(c8ccccc8)C(c8ccc(C)cc8)[C@@H]7C6=O)cc5)cc4)C(=O)[C@H]3ON2c2ccccc2)cc1 (some centres undefined)
  EC50: > 6.76 µM
  IC50: > 6.76 µM

## O=[N+]([O-])/C(C(Cl)=C(Cl)Cl)=C(/Sc1ccccc1)N1CCCCC1
  EC50: > 195 µM
  IC50: 12.9 µM

## CCCC(=O)C(CC)/C(CCC(=O)N(Cc1ccccc1)Cc1ccccc1)=N/NC(=O)C[N+](C)(C)C (centres undefined)
  outcome: inactive

## CC1OC(=O)N2CCC=CC12 (centres undefined)
  outcome: inactive

## O=C(Nc1ccc(Cl)cc1)Sc1nnc2c(n1)[nH]c1ccccc12
  EC50: 30.2 µM
  IC50: > 200 µM

## CCOC(=O)c1c(-c2ccc(O)c(OC)c2)c(C#N)c(=S)n(C2OC(COC(C)=O)C(OC(C)=O)C(OC(C)=O)C2OC(C)=O)c1-c1ccccc1 (centres undefined)
  EC50: > 200 µM
  IC50: 91.2 µM and 64.6 µM

## O=C(Nc1ccc(Cl)cc1Cl)C(=O)Nn1c(=S)[nH]c2ccccc2c1=O
  outcome: inactive

## Cc1ccccc1Nc1cn(CCOc2ccccc2)c(=O)n(CCOc2ccccc2)c1=O
  EC50: > 200 µM
  IC50: > 200 µM

## Oc1ccc(I)c2cccnc12
  EC50: > 182 µM
  IC50: 2.19 µM

## CC1c2c(cc(=O)n(Cc3ccccc3)c2O)C(=O)N1C (centres undefined)
  EC50: > 126 µM
  IC50: 112 µM

## COc1cc(-c2cc(-c3ccccc3)nc(-c3c(OC)ccc4c(C)cc(=O)oc34)c2)cc(OC)c1OC
  EC50: > 200 µM
  IC50: > 200 µM

## CCC/C(Cl)=N\OC(=O)Nc1ccc(OC(F)(F)F)cc1
  EC50: > 20 µM
  IC50: 5.37 µM

## CCCC[n+]1cc(C(N)=O)cc2ccccc21
  EC50: 0.0692 µM
  IC50: 219 µM

## COC(=O)[C@H](Cc1c[nH]c2ccccc12)NP(=O)(O)CCC1OC(n2cc(C)c(=O)[nH]c2=O)CC1N=[N+]=[N-] (some centres undefined)
  EC50: > 200 µM
  IC50: > 200 µM

## N#Cc1ncoc1N
  EC50: > 200 µM
  IC50: > 200 µM

## CCOC(=O)c1c(SCCO)n(-c2ccccc2)c(=S)n(-c2ccccc2)c1=O
  EC50: > 200 µM
  IC50: > 200 µM

## CCOC(=O)Nc1cc(Nc2ccc(Cl)cc2)c2nc(-c3ccc(Cl)cc3)c(-c3ccc(Cl)cc3)nc2n1
  EC50: > 37.2 µM
  IC50: > 37.2 µM

## Cc1cc(N(CCC#N)S(=O)(=O)c2ccccc2)ccc1C=Nc1cccc(C(=O)O)c1
  EC50: > 151 µM
  IC50: > 151 µM

## CCC(=O)C(C)C(=O)C(=O)C(=O)OC (centres undefined)
  EC50: > 13.5 µM
  IC50: > 13.5 µM

## O=C1NC(N/N=C\C(O)C(O)C(O)CO)=N/C1=C/c1ccc(Cl)cc1 (centres undefined)
  EC50: > 200 µM
  outcome: inactive
  IC50: 30.2 µM

## Cc1cc2c(cc1Cl)SC(NN(C)C)=NS2(=O)=O
  EC50: > 200 µM
  IC50: 117 µM

## CC1(C)OC2OC(C(O)CO)C(OC(=S)SSC(=S)OC3C(C(O)CO)OC4OC(C)(C)OC43)C2O1 (centres undefined)
  EC50: > 200 µM
  IC50: 36.3 µM

## Cn1cnnc1Sc1c([N+](=O)[O-])nc(-c2ccc([N+](=O)[O-])cc2)n1C
  EC50: > 100 µM
  IC50: 2.95 µM

## C=Cc1cc[n+](CCCCC[n+]2ccc(C=C)cc2)cc1
  EC50: > 100 µM
  IC50: > 100 µM

## COc1cccc(CCn2c(N)c(C(=O)O)c3ccc([N+](=O)[O-])cc3c2=O)c1
  EC50: > 200 µM
  IC50: 24 µM

## CCCN(CCCC(NC(C)=O)C(=O)NCc1ccccc1)C(=O)NC (centres undefined)
  EC50: > 692 µM
  IC50: > 692 µM

## COc1ccc(C(c2ccccc2)C(C)C(=O)c2c(C)cc(C)cc2C)cc1 (centres undefined)
  EC50: > 19.5 µM
  IC50: > 19.5 µM

## O=C1OC(c2ccccc2)=N/C1=C\c1ccc(Cl)cc1Cl
  EC50: > 200 µM
  IC50: 97.7 µM

## CC1(C)CNC[C@](C)(OCc2ccccc2)C(=O)[N-]C(C)(C)CNC[C@@](C)(OCc2ccccc2)C(=O)[N-]1.[Ni+2]
  EC50: > 200 µM
  IC50: 151 µM

## COC1/C=C/OC2(C)Oc3c(C)c(O)c4c(O)c(c(/C=N/Nc5nc6c(N)ncnc6n5C5OC(CO)C(O)C5O)c(O)c4c3C2=O)NC(=O)C(C)=C/C=C/C(C)C(O)C(C)C(O)C(C)C(OC(C)=O)C1C (centres undefined)
  EC50: > 200 µM
  IC50: 158 µM

## COc1ccc(/C=C/C(=O)c2nc3ccccc3n2C)cc1
  EC50: > 200 µM
  IC50: 26.9 µM

## Cc1cc(Cl)c(=O)n(-c2ccccc2)n1
  EC50: > 162 µM
  IC50: > 162 µM

## O=C1C(N=Nc2ccc([N+](=O)[O-])cc2)Sc2nc3ccccc3n21 (centres undefined)
  EC50: > 200 µM
  IC50: 178 µM

## CCC(C)C(NC(=O)c1ccccc1SC(=O)CCCC[n+]1ccccc1)C(N)=O (centres undefined)
  EC50: > 35.5 µM
  IC50: 4.07 µM

## C[N+](C)(C)c1ccc2c(c1)N(S(C)(=O)=O)CC2CCl (centres undefined)
  outcome: inactive

## COc1ccccc1-n1c(=O)n(C)c(=O)n1C(C)(C)C
  EC50: > 200 µM
  IC50: > 200 µM

## C=C1C2CCC3(CCC4C5(C)CCCC4(CN(C(C)=O)C5)C3C2)C1O (centres undefined)
  outcome: inactive
